Test results: patent US20050124562A1, “Bis-quinazoline compounds for the treatment of bacterial infections” (priority 2003, published 2005)
Values after ≈ are worked out from the molar mass of the structure shown.

How the values were obtained:
[1] = system: reconstituted bacterial DNA polymerase holoenzymes from E. coli, Y. pestis and S. pyogenes; assay type: biochemical
[2] = system: S. aureus, E. faecalis, S. pyogenes and S. pneumoniae; test: Broth microdilution MIC (NCCLS), gram-positive strains; assay type: cell-based
How it was run: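 MICs by broth microdilution per NCCLS M-7 A-6 against ATCC strains, including ORSA and VRE; MBCs determined for selected organisms. Serum effect assessed by repeating MIC tests with human serum present.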

[3] = system: clinically important gram-positive pathogens; test: Whole cell antibacterial (MIC) and bactericidal (MBC) activity; assay type: cell-based
Procedure: (§1) Representative bis-quinazolines were tested for antibacterial activity using the […] microdilution method to determine their minimum inhibitory concentrations (MICs). All compounds were tested using standard methods in accordance with NCCLS guidelines (National Committee for Clinical Laboratory Standards. 2003. Methods for dilution antimicrobial susceptibility testing for bacteria that grow aerobically. Approved Standard M-7 A-6, NCCLS, Wayne, Pa.). The bacterial strains used in the susceptibility tests were obtained from the American Type Culture Collection (ATCC) and included resistant phenotypes such as oxacillin-resistant S. aureus (ORSA) and vancomycin-resistant enterococci (VRE). The minimum bactericidal concentrations (MBCs) were determined for selected organisms. The effect of protein binding on the antibacterial activity of representative bis-quinazolines were determined by conducting MIC tests in the presence of human serum.

[4] = system: clinically important bacterial pathogens; test: MIC tests in the presence of human serum; assay type: cell-based; conditions: 50% human serum
Procedure: as §1

[5] = Single dose toxicity study in the mouse; assay type: in vivo; conditions: single dose IP, 2.5 to 25 mg/kg, female Swiss-Webster mice, monitored one week
Procedure: A single dose toxicity study was conducted in the mouse prior to evaluating the compound for in vivo efficacy. 2-(6-Methoxy-4-methyl-quinazolin-2-ylamino)-3H-quinazolin-4-ol was prepared in a vehicle consisting of 10% DMSO, 10% ethanol and 80% saline that contained 3% β-cyclodextrin. The compound was administered as a single dose to the peritoneal cavity of female Swiss-Webster mice at the six concentrations (2.5, 5, 10, 15, 20 and 25 mg/kg) proposed for evaluation in the efficacy study. The mice were monitored for toxicity for one week following compound administration.

[6] = system: S. aureus ATCC 29213; test: S. aureus murine intra-abdominal sepsis model; assay type: in vivo, mice; conditions: 25 mg/kg IP one hour post infection, MLD of S. aureus IP
Procedure: Typically, the model involves inoculating the intra-peritoneal cavity of the mouse with the minimum lethal dose (MLD) of the test organism. The test antimicrobial agent can be administered by any route (e.g. intravenously, sub-cutaneously, oral, intraperitoneal). Early stage compounds are evaluated following intraperitoneal administration since this is considered to be relevant to systemic treatment since most of the compound will be absorbed into the bloodstream. The compound is then monitored for its ability to protect the mouse from a lethal infection with the test organism in a concentration-dependent manner. At the same time the model provides early data on the potential toxicity of a new compound.
The S. aureus murine intra-abdominal sepsis model was used to evaluate the in vivo efficacy of 2-(6-Methoxy-4-methyl-quinazolin-2-ylamino)-3H-quinazolin-4-ol. […] The animals were then monitored at frequent intervals and the numbers of mice surviving in the different treatment groups was scored and recorded in an attempt to determine the protective dose (PD50). Levofloxacin was evaluated as a positive control (0.875, 1.75, 3.125, 6.25, 12.5 and 25 mg/kg). Vehicle only and saline controls were also evaluated.

Structure (SMILES): COc1ccc2nc(Nc3nc(O)c4ccccc4n3)nc(C)c2c1 [Example 9, 2-(6-Methoxy-4-methyl-quinazolin-2-ylamino)-quinazolin-4-ol]
- biochemical activity against reconstituted DNA polymerase holoenzymes [1]: demonstrated biochemical activity
- MIC [2]: 0.06 to 16 µg/mL (≈ 0.18 to 48 µM)
- whole cell antibacterial and bactericidal activity [3]: potent whole cell antibacterial and bactericidal activity
- antibacterial activity in the presence of human serum [4]: activity is evident
- tolerability after single dose ([5]; listed as 2-(6-Methoxy-4-methyl-quinazolin-2-ylamino)-3H-quinazolin-4-ol): All mice tolerated the compound
- tolerability after single dose ([5]; listed as 2-(6-Methoxy-4-methyl-quinazolin-2-ylamino)-3H-quinazolin-4-one): well tolerated
- mice protected from lethal S. aureus infection [6]: 50%
